Results reported in US20160199380A1, “Sigma Ligands For the Prevention or Treatment of Pain Induced by Chemotherapy” (Laboratorios del Dr. Esteve, S.A., priority 2009, published 2016).

Tested on: Cisplatin-induced mechanical allodynia
Format: in vivo, Wistar rats
Details: rats
Description: Male Wistar rats (250-300 g) were obtained from Harlan-lberica (Barcelona, Spain). Upon arrival to our laboratory, animals were stored in standard transparent cages (40×28×25 cm) in environmentally controlled conditions (temperature=20° C,; humidity=60%) with a 12 h light/12 h dark cycle (lights on between 08:00 and 20:00 h). Animals were allowed free access to tap water and standard laboratory rat chow (Harlan-lberica, Barcelona, Spain).
Prior to the experiment, rats were habituated to isolation. Rats received intraperitoneal injections one day per week for 5 weeks of cisplatin (1 mg/kg)+vehicle (control group for acute treatment) or cisplatin (1 mg/kg)+compound 63 (25 mg/kg). The last week (day 36) control group received an acute administration of 64 mg/kg of compound 63.
Mechanical allodynia was assessed before cisplatin administration (basal) and at the end of each experimental week (w1, w2, w3, w4). For the acute evaluation of compound 63 (w5), the mechanical allodynia was assessed 50 minutes after drug administration. On those days, rats were placed individually on an elevated iron mesh in a clear plastic cage and were allowed to adapt to the testing environment for at least 10 min. Habituation to this environment was also performed on the two days before assessment. […] Only robust and immediate withdrawal responses from the stimulus were recorded. […]

Cc1cc(OCCN2CCOCC2)nn1-c1ccc2ccccc2c1 [Compound 63, 4-{2-[5-Methyl-1-(naphthalen-2-yl)-1H-pyrazol-3-yloxy]ethyl}morpholine]
von Frey pressure response, acute treatment (64 mg/kg on week 5, 50 minutes before the test, cisplatin 1 mg/kg once a week for 5 weeks): reverted the effect induced by cisplatin to basal levels | development of mechanical allodynia, preventive treatment (coadministration of 25 mg/kg twice a day, one day per week, same days as cisplatin 1 mg/kg): prevented the development of mechanical allodynia by cisplatin
